According to EP0973746B1, “SUBSTITUTED 3-CYANO QUINOLINES” (Wyeth Holdings Corporation, priority 1997, dated 1998):
In brackets after ≈: the same amount, converted by molar mass. Like-named read-outs stand apart in the source and are kept apart here.

What was measured:
A431 [1] = assay: Inhibition of cell growth by incorporation of [3H]-thymidine, A431; type: cell-based, human; settings: Homo sapiens
HTB161 = assay: Inhibition of cancer cell growth as measured by cell number, HTB161; type: cell-based; settings: Homo sapiens, read-out: IC50 HTB161
A27805 = assay: Inhibition of cancer cell growth as measured by cell number, A27805; type: cell-based; settings: Homo sapiens, read-out: IC50 A27805
A2780DDP = assay: Inhibition of cancer cell growth as measured by cell number, A2780DDP; type: cell-based; settings: Homo sapiens, read-out: IC50 A2780DDP
MIP = assay: Inhibition of cancer cell growth as measured by cell number, MIP; type: cell-based; settings: Homo sapiens; cell number, Sulforhodamine B, 48 hours exposure; Table 4; read-out: IC50 MIP
SW620 = assay: Inhibition of cancer cell growth as measured by cell number, SW620; type: cell-based, human; settings: Homo sapiens, SW-620, 48 h;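 also: SW620 was included as a cell line with little or no EGFR or HER2/neu expression, in contrast to receptor-overexpressing lines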
Text: (§1) The cell lines were chosen since they overexpressed epidermal growth factor receptor (EGFR) (i.e. A431) or HER2/neu (SKBR3), or had little to no expression of the these receptors (SW620, LOX, MCF7).

COLO205 = assay: Inhibition of cancer cell growth as measured by cell number, COLO205; type: cell-based; settings: Homo sapiens, read-out: IC50 COLO205
CX1 = assay: Inhibition of cancer cell growth as measured by cell number, CX1; type: cell-based; settings: Homo sapiens, read-out: IC50 CX1
CACO2 = assay: Inhibition of cancer cell growth as measured by cell number, CACO2; type: cell-based; settings: Homo sapiens, read-out: IC50 CACO2
HCT15 = assay: Inhibition of cancer cell growth as measured by cell number, HCT15; type: cell-based; settings: Homo sapiens, read-out: IC50 HCT15
LS174T = assay: Inhibition of cancer cell growth as measured by cell number, LS174T; type: cell-based; settings: Homo sapiens
SW948 = assay: Inhibition of cancer cell growth as measured by cell number, SW948; type: cell-based; settings: Homo sapiens, read-out: IC50 SW948
CCL228 = assay: Inhibition of cancer cell growth as measured by cell number, CCL228; type: cell-based; settings: Homo sapiens, read-out: IC50 CCL228
MCF7 = assay: Inhibition of cancer cell growth as measured by cell number, MCF7; type: cell-based, human; settings: Homo sapiens, MCF7, 48 h;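 also: MCF7 was included as a line with little or no EGFR or HER2/neu expression, in contrast to the receptor-overexpressing lines of the panel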
Text: as §1

B7474 = assay: Inhibition of cancer cell growth as measured by cell number, B7474; type: cell-based; settings: Homo sapiens, read-out: IC50 B7474
T47D = assay: Inhibition of cancer cell growth as measured by cell number, T47D; type: cell-based; settings: Homo sapiens
LX1 = assay: Inhibition of cancer cell growth as measured by cell number, LX1; type: cell-based; settings: Homo sapiens, read-out: IC50 LX1
A549 = assay: Inhibition of cancer cell growth as measured by cell number, A549; type: cell-based; settings: Homo sapiens, read-out: IC50 A549
LOX = assay: Inhibition of cancer cell growth as measured by cell number, LOX; type: cell-based, human; settings: Homo sapiens, LOX, 48 h;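 also: LOX cells served as a line with low or absent EGFR and HER2/neu expression, in contrast to receptor-overexpressing lines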
Text: as §1

A431 [2] = assay: Inhibition of cancer cell growth as measured by cell number, A431; type: cell-based, human; settings: Homo sapiens, A-431, 48 h;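 also: human A431 line, picked because it overexpresses epidermal growth factor receptor (EGFR)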
Text: as §1

NEC = assay: Inhibition of cancer cell growth as measured by cell number, NEC; type: cell-based; settings: Homo sapiens, read-out: IC50 NEC
DU145 = assay: Inhibition of cancer cell growth as measured by cell number, DU145; type: cell-based; settings: Homo sapiens, read-out: IC50 DU145
PC3 = assay: Inhibition of cancer cell growth as measured by cell number, PC3; type: cell-based; settings: Homo sapiens, read-out: IC50 PC3
LNCAP = assay: Inhibition of cancer cell growth as measured by cell number, LNCAP; type: cell-based; settings: Homo sapiens
HL60 = assay: Inhibition of cancer cell growth as measured by cell number, HL60; type: cell-based; settings: Homo sapiens, read-out: IC50 HL60
CCRF-CFM = assay: Inhibition of cancer cell growth as measured by cell number, CCRF-CFM; type: cell-based; settings: Homo sapiens, read-out: IC50 CCRF-CFM
SKBR3 = assay: Inhibition of cancer cell growth as measured by cell number, SKBR3; type: cell-based, human; settings: Homo sapiens;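 also: SK-BR-3 cells were selected as a line overexpressing HER2/neu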
Text: as §1

[3] = biological target: recombinant human MEK 1 (MAPKK) and recombinant human ERK2 (MAPK); assay: Mitogen Activated Protein Kinase (MAPK) assay, two component coupled MEK 1 / ERK2; type: biochemical; settings: separate entries for the same compound = evaluated more than one time;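 also: MEK 1-activated ERK2 phosphorylates MBP or Myc peptide with 33P-ATP, filter capture and scintillation counting, inhibitor preincubated with ERK2 30 min at 0 °C, inhibition relative to uninhibited control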
[4] = biological target: epidermal growth factor receptor kinase (Homo sapiens, UniProt P00533); assay: biochemical
epidermal growth factor receptor kinase, sequence (P00533 25-1210): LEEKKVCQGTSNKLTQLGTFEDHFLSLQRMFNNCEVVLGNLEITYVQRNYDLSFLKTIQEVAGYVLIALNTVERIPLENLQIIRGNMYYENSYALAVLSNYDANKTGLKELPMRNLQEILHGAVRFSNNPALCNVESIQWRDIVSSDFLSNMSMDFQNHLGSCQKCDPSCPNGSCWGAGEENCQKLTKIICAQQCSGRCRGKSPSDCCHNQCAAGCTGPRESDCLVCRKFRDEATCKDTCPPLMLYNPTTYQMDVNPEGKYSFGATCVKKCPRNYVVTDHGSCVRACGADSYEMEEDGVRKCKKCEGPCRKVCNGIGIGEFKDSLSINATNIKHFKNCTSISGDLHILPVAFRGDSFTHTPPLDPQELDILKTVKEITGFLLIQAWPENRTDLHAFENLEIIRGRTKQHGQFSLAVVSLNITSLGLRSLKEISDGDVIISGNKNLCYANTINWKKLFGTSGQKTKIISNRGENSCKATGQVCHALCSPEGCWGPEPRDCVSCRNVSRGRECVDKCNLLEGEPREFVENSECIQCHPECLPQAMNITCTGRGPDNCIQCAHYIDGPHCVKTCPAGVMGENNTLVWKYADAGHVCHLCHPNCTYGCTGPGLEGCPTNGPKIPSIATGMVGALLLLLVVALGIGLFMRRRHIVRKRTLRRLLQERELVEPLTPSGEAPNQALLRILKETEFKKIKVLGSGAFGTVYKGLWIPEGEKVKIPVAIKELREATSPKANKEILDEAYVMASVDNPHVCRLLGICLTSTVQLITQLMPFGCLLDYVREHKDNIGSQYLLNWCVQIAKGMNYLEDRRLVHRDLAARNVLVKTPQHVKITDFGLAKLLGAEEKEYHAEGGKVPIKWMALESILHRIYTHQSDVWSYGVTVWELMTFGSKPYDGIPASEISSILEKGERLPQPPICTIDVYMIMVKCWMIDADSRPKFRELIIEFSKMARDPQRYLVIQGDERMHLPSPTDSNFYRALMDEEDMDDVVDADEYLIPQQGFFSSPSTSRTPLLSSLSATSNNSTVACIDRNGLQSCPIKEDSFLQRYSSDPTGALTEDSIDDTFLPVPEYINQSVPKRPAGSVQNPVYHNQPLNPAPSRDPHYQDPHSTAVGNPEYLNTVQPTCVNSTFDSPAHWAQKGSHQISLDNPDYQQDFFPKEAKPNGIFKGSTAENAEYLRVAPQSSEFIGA
Experimental: The enzyme was obtained as a membrane extract of A431 cells (American Type Culture Collection, Rockville, MD). A431 cells were grown in T175 flasks to 80% confluency. The cells were washed twice with phosphate buffered saline (PBS) without Ca^2+. Flasks were rotated for 1.5 hours in 20 ml PBS with 1.0 mM ethylenediaminetetraacetic acid (EDTA) at room temperature and centrifuged at 600g for 10 minutes. The cells were solubilized in 1 ml per 5 x 10^6 cells of cold lysis buffer {10mM 4-(2-hydroxyethyl)-1-piperazineethane-sulfonic acid (HEPES), pH 7.6, 10 mM NaCl, 2mM EDTA, 1mM phenylmethyl-sulfonyl-fluoride (PMSF), 10 mg/ml aprotinin, 10 mg/ml leupeptin, 0.1 mM sodium orthovanadate} in a Dounce homogenizer with 10 strokes on ice. The lysate was centrifuged at 600g for 10 minutes first to clear cell debris and the supernatant further centrifuged at 100,000 g for 30 min at 4°C. The membrane pellet was suspended in 1.5 ml HNG buffer (50 mM HEPES, pH 7.6, 125 mM NaCl, 10% glycerol). The membrane extract was divided into aliquots, immediately frozen in liquid nitrogen and stored at -70°C.
Compounds to be evaluated were made into 10 mg/ml stock solutions in 100% dimethylsulfoxide (DMSO). Prior to experiment, stock solutions were diluted to 500 mM with buffer (30 mM Hepes pH 7.4) and then serially diluted to the desired concentration.
An aliquot of the A431 membrane extract (10 mg/ml) was diluted in 30 mM HEPES (pH 7.4) to give a protein concentration of 50 ug/ml. […] To this was added the ^33p-ATP (10 mCi/ml) diluted 1:10 in assay buffer along with the substrate peptide at a concentration of 0.5 mM (control reactions get no test compound) and the reaction was allowed to proceed for 30 min at 30°C. The reaction was stopped with 10% TCA and left on ice for at least 10 min after which tubes were microcentrifuged at full speed for 15 min. The a portion of the supernatants were spotted on P81 phosphocellulose discs and washed twice in 1% acetic acid then water for 5 min each followed by scintillation counting. […] The % inhibition of the test compound was determined for at least three different concentrations and the IC50 value was evaluated from the dose response curve. […] CPM(control) is in units of counts per minute and was a number expressing the amount of radiolabeled ATP (g-^33P) incorporated into the RR-SRC peptide substrate by the enzyme after 30 minutes at 30°C in the absence of test compound as measured by liquid scintillation counting. The CPM values were corrected for the background counts produced by ATP in the absence of the enzymatic reaction. The IC50 values reported in TABLE 1 are averages of the number of tests conducted.

[5] = cell number, Sulforhodamine B, 48 hours exposure, Table 4
[6] = cell number, Sulforhodamine B, 48 hours exposure, Table 6
[7] = read-out: IC50 SW620, cell number, Sulforhodamine B, 48 hours exposure, Table 4
[8] = read-out: IC50 MCF7, cell number, Sulforhodamine B, 48 hours exposure, Table 5
[9] = read-out: IC50 LOX, cell number, Sulforhodamine B, 48 hours exposure, Table 6
[10] = read-out: IC50 A431, cell number, Sulforhodamine B, 48 hours exposure, Table 6
[11] = SK-BR-3, 48 h, read-out: IC50 SKBR3, cell number, Sulforhodamine B, 48 hours exposure, Table 7

COc1cc2ncc(C#N)c(NC3CCCCC3)c2cc1OC [Example 38, 4-(Cyclohexyamino)-6,7-dimethoxy-3-quinolinecarbonitrile]
IC50 (A431 [1]; A-431, [3H]-thymidine incorporation, A431, read-out: IC50 A431): 35000 nM
IC50 (HTB161; [5]): 3.19 µg/mL (≈ 10.3 µM)
IC50 (A27805; [5]): 4.58 µg/mL (≈ 14.7 µM)
IC50 (A2780DDP; [5]): 6.56 µg/mL (≈ 21.1 µM)
IC50 (MIP): 7.75 µg/mL (≈ 24.9 µM)
IC50 (SW620; cell number, Sulforhodamine B, 48 hours exposure, Table 4, read-out: IC50 SW620): 31.7 µg/mL (≈ 102 µM)
IC50 (COLO205; COLO 205, cell number, Sulforhodamine B, 48 hours exposure, Table 4): 6.43 µg/mL (≈ 20.6 µM)
IC50 (CX1; CX-1, cell number, Sulforhodamine B, 48 hours exposure, Table 4): 5.62 µg/mL (≈ 18.1 µM)
IC50 (CACO2; Caco-2, cell number, Sulforhodamine B, 48 hours exposure, Table 5): 5.62 µg/mL (≈ 18 µM)
IC50 (HCT15; HCT-15, cell number, Sulforhodamine B, 48 hours exposure, Table 5): 5.16 µg/mL (≈ 16.6 µM)
IC50 (LS174T; cell number, Sulforhodamine B, 48 hours exposure, Table 5, read-out: IC50 LS174T): 5.37 µg/mL (≈ 17.2 µM)
IC50 (SW948; SW948, cell number, Sulforhodamine B, 48 hours exposure, Table 5): 10.4 µg/mL (≈ 33.5 µM)
IC50 (CCL228; cell number, Sulforhodamine B, 48 hours exposure, Table 5): 8.49 µg/mL (≈ 27.3 µM)
IC50 (MCF7; cell number, Sulforhodamine B, 48 hours exposure, Table 5, read-out: IC50 MCF7): 6 µg/mL (≈ 19.3 µM)
IC50 (B7474; [6]): 17 µg/mL (≈ 54.5 µM)
IC50 (T47D; cell number, Sulforhodamine B, 48 hours exposure, Table 6, read-out: IC50 T47D): 5.98 µg/mL (≈ 19.2 µM)
IC50 (LX1; LX-1, cell number, Sulforhodamine B, 48 hours exposure, Table 6): 7.52 µg/mL (≈ 24.2 µM)
IC50 (A549; A549, cell number, Sulforhodamine B, 48 hours exposure, Table 6): 7.33 µg/mL (≈ 23.5 µM)
IC50 (LOX; cell number, Sulforhodamine B, 48 hours exposure, Table 6, read-out: IC50 LOX): 8.12 µg/mL (≈ 26.1 µM)
IC50 (A431 [2]; cell number, Sulforhodamine B, 48 hours exposure, Table 6, read-out: IC50 A431): 4.73 µg/mL (≈ 15.2 µM)
IC50 (NEC; [6]): 6.53 µg/mL (≈ 21 µM)
IC50 (DU145; DU-145, cell number, Sulforhodamine B, 48 hours exposure, Table 7): 5.15 µg/mL (≈ 16.5 µM)
IC50 (PC3; PC-3, cell number, Sulforhodamine B, 48 hours exposure, Table 7): 9.33 µg/mL (≈ 30 µM)
IC50 (LNCAP; cell number, Sulforhodamine B, 48 hours exposure, Table 7, read-out: IC50 LNCAP): 4.58 µg/mL (≈ 14.7 µM)
IC50 (HL60; HL-60, cell number, Sulforhodamine B, 48 hours exposure, Table 7): 4.27 µg/mL (≈ 13.7 µM)
IC50 (CCRF-CFM; cell number, Sulforhodamine B, 48 hours exposure, Table 7): 4.39 µg/mL (≈ 14.1 µM)
IC50 (SKBR3; SK-BR-3, cell number, Sulforhodamine B, 48 hours exposure, Table 7, read-out: IC50 SKBR3): 7.14 µg/mL (≈ 22.9 µM)
IC50 [3]: 45 µM

COc1cc2ncc(C#N)c(Nc3cccc(Cl)c3)c2cc1OC [Example 41, 4-[(3-Chlorophenyl)amino]-6,7-dimethoxy-3-quinolinecarbonitrile]
IC50 (A431 [1]; A-431, read-out: IC50 A431): 1500 nM
IC50 (HTB161; 48 h): 7.87 µg/mL (≈ 23.2 µM)
IC50 (A27805; 48 h): 7.73 µg/mL (≈ 22.7 µM)
IC50 (A2780DDP; 48 h): 6.25 µg/mL (≈ 18.4 µM)
IC50 (MIP): 4.09 µg/mL (≈ 12 µM)
IC50 (SW620; [7]): 14.7 µg/mL (≈ 43.1 µM)
IC50 (SW620; read-out: IC50 SW620, cell number, Sulforhodamine B, 48 hours exposure, Table 8): 2.23 µg/mL (≈ 6.56 µM)
IC50 (COLO205; COLO 205, 48 h): 6.13 µg/mL (≈ 18 µM)
IC50 (CX1; CX-1, 48 h): 7.25 µg/mL (≈ 21.3 µM)
IC50 (CACO2; Caco-2, 48 h): 2.11 µg/mL (≈ 6.21 µM)
IC50 (HCT15; HCT-15, 48 h): 4.21 µg/mL (≈ 12.4 µM)
IC50 (LS174T; 48 h, read-out: IC50 LS174T): 2.92 µg/mL (≈ 8.61 µM)
IC50 (SW948; SW948, 48 h): 14.1 µg/mL (≈ 41.6 µM)
IC50 (CCL228; 48 h): 18.5 µg/mL (≈ 54.4 µM)
IC50 (MCF7; [8]): 24.8 µg/mL (≈ 73.1 µM)
IC50 (MCF7; read-out: IC50 MCF7, cell number, Sulforhodamine B, 48 hours exposure, Table 8): 6.86 µg/mL (≈ 20.2 µM)
IC50 (B7474; 48 h): 6.26 µg/mL (≈ 18.4 µM)
IC50 (T47D; 48 h, read-out: IC50 T47D): 8.5 µg/mL (≈ 25 µM)
IC50 (LX1; LX-1, 48 h): 48.7 µg/mL (≈ 143 µM)
IC50 (A549; A549, 48 h): 25 µg/mL (≈ 73.5 µM)
IC50 (LOX; [9]): 0.961 µg/mL (≈ 2.83 µM)
IC50 (LOX; read-out: IC50 LOX, cell number, Sulforhodamine B, 48 hours exposure, Table 8): 1.33 µg/mL (≈ 3.91 µM)
IC50 (A431 [2]; [10]): 0.813 µg/mL (≈ 2.39 µM)
IC50 (A431 [2]; read-out: IC50 A431, cell number, Sulforhodamine B, 48 hours exposure, Table 8): 0.24 µg/mL (≈ 0.706 µM)
IC50 (NEC; 48 h): 8.46 µg/mL (≈ 24.9 µM)
IC50 (DU145; DU-145, 48 h): 0.913 µg/mL (≈ 2.69 µM)
IC50 (PC3; PC-3, 48 h): 17.5 µg/mL (≈ 51.5 µM)
IC50 (LNCAP; 48 h, read-out: IC50 LNCAP): 3.53 µg/mL (≈ 10.4 µM)
IC50 (HL60; HL-60, 48 h): 3.23 µg/mL (≈ 9.52 µM)
IC50 (CCRF-CFM; 48 h): 8.29 µg/mL (≈ 24.4 µM)
IC50 (SKBR3; [11]): 20.6 µg/mL (≈ 60.8 µM)
IC50 (SKBR3; SK-BR-3, 48 h, read-out: IC50 SKBR3, cell number, Sulforhodamine B, 48 hours exposure, Table 8): 0.48 µg/mL (≈ 1.41 µM)
IC50 [3]: 1.4 µM
IC50 [4]: 200 nM

COc1cc2ncc(C#N)c(Nc3cccc(C#N)c3)c2cc1OC [Example 45, 4-[(3-Cyanophenyl)amino]-6,7-dimethoxy-3-quinolinecarbonitrile]
IC50 (A431 [1]; A-431, read-out: IC50 A431): 150 nM
IC50 (HTB161; 48 h): 4.21 µg/mL (≈ 12.8 µM)
IC50 (A27805; 48 h): 8.66 µg/mL (≈ 26.2 µM)
IC50 (A2780DDP; 48 h): 39.3 µg/mL (≈ 119 µM)
IC50 (MIP): > 100 µg/mL
IC50 (SW620; [7]): > 100 µg/mL
IC50 (COLO205; COLO 205, 48 h): > 100 µg/mL
IC50 (CX1; CX-1, 48 h): 89.7 µg/mL (≈ 271 µM)
IC50 (CACO2; Caco-2, 48 h): 0.911 µg/mL (≈ 2.76 µM)
IC50 (HCT15; HCT-15, 48 h): 79.7 µg/mL (≈ 241 µM)
IC50 (LS174T; 48 h, read-out: IC50 LS174T): 87.1 µg/mL (≈ 264 µM)
IC50 (SW948; SW948, 48 h): > 100 µg/mL
IC50 (CCL228; 48 h): > 100 µg/mL
IC50 (MCF7; [8]): 57.8 µg/mL (≈ 175 µM)
IC50 (B7474; 48 h): 86.8 µg/mL (≈ 263 µM)
IC50 (T47D; 48 h, read-out: IC50 T47D): 30 µg/mL (≈ 90.9 µM)
IC50 (LX1; LX-1, 48 h): 100 µg/mL (≈ 303 µM)
IC50 (A549; A549, 48 h): 100 µg/mL (≈ 303 µM)
IC50 (LOX; [9]): 9.06 µg/mL (≈ 27.4 µM)
IC50 (A431 [2]; [10]): 2.61 µg/mL (≈ 7.9 µM)
IC50 (NEC; 48 h): 72.1 µg/mL (≈ 218 µM)
IC50 (DU145; DU-145, 48 h): 8.94 µg/mL (≈ 27.1 µM)
IC50 (PC3; PC-3, 48 h): 88.9 µg/mL (≈ 269 µM)
IC50 (LNCAP; 48 h, read-out: IC50 LNCAP): 57.8 µg/mL (≈ 175 µM)
IC50 (HL60; HL-60, 48 h): > 100 µg/mL
IC50 (CCRF-CFM; 48 h): > 100 µg/mL
IC50 (SKBR3; [11]): 60.5 µg/mL (≈ 183 µM)
IC50 [3]: > 100 µM
IC50 [4]: 1670 nM
